# Test system: not listed separately
# Experiment: Clearance in mice after intravenous dosage
# Format: ADME, organism-based
# Details: mouse, in vivo
row,Compound,clearance [mL/min/kg]
1,O=C(O)CC(c1ccc2c(c1)OCO2)n1ccc2cc(OCCc3ccc4c(n3)NCCC4)ccc21 (centres undefined),13

# Target: Integrin alpha-V/beta-3 (Homo sapiens, UniProt P05106+P06756)
# Experiment: Inhibitory concentration against alphaV-beta3 integrin
# Format: protein-complex assay
# Details: not given
# Sequence of Integrin alpha-V/beta-3 (P05106 27-788 limits assumed): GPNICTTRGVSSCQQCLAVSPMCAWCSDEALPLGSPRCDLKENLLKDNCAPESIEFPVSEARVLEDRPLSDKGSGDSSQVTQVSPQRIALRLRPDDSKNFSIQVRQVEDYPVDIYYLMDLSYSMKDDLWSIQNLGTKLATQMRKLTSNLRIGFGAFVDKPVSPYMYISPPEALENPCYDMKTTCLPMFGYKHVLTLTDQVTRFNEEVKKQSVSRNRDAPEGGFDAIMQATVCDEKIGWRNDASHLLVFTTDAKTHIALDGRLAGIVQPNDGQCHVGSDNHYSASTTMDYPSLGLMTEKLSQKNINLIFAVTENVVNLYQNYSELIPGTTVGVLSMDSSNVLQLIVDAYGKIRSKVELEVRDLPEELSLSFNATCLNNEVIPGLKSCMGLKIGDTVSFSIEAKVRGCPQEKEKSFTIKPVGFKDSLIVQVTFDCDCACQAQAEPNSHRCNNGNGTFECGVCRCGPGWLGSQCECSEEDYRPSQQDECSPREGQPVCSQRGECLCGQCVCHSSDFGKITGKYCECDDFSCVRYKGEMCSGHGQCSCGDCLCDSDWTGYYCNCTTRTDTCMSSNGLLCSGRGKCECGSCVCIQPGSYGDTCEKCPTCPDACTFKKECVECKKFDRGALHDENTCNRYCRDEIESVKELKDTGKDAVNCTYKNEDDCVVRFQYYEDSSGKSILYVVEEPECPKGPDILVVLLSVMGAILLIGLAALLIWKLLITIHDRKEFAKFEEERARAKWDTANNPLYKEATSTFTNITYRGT
# Sequence of Integrin alpha-V/beta-3 (P06756 31-889 limits assumed): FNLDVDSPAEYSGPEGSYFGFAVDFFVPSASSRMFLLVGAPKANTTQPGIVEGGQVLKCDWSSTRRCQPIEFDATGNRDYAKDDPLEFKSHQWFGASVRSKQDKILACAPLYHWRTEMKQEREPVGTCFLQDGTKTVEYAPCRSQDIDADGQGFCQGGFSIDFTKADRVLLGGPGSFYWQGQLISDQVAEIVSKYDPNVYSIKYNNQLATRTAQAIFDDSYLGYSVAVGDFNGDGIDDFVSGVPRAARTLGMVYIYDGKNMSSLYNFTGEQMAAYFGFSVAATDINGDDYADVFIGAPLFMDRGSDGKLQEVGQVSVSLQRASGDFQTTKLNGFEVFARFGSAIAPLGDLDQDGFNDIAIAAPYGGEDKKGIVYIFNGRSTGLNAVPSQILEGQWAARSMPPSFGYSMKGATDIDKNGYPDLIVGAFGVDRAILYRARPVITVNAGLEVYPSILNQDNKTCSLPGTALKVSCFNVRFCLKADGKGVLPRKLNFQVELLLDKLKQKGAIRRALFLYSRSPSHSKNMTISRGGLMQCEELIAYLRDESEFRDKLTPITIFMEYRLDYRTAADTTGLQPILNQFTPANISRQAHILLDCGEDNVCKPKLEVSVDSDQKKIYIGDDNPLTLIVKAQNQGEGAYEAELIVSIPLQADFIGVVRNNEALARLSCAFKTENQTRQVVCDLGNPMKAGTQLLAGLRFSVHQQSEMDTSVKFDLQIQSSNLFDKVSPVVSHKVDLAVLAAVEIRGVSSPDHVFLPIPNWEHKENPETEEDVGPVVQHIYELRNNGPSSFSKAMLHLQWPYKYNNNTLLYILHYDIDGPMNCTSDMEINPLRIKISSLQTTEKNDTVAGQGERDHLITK
# Sequence of Integrin alpha-V/beta-3 (P06756 891-1048 limits assumed): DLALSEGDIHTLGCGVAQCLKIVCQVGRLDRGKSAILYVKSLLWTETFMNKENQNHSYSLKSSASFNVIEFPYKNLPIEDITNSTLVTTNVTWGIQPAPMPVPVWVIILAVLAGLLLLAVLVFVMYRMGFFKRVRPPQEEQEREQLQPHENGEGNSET
row,Compound,IC50 [nM]
1,COc1cccc(C(CC(=O)O)n2ccc3cc(OCCc4ccc5c(n4)NCCC5)ccc32)c1 (centres undefined),0.8
2,COc1ccc(C(CC(=O)O)n2ccc3cc(OCCc4ccc5c(n4)NCCC5)ccc32)cc1 (centres undefined),0.7
3,O=C(O)CC(c1ccccc1Cl)n1ccc2cc(OCCc3ccc4c(n3)NCCC4)ccc21 (centres undefined),55
4,N#Cc1cncc(C(CC(=O)O)n2ccc3cc(OCCc4ccc5c(n4)NCCC5)ccc32)c1 (centres undefined),0.26
5,O=C(O)CC(c1cccnc1)n1ccc2cc(OCCc3ccc4c(n3)NCCC4)ccc21 (centres undefined),0.25
6,O=C(O)CC(c1ccc2c(c1)OCO2)n1ccc2cc(OCCc3ccc4c(n3)NCCC4)ccc21 (centres undefined),0.38
7,O=C(O)C(Cc1ccccc1)Cn1ccc2cc(OCCCNc3ccccn3)ccc21 (centres undefined),1900
8,CCCC(CC(=O)O)n1ccc2cc(CCCc3ccc4c(n3)NCCC4)ccc21 (centres undefined),23
9,O=C(O)CC(c1cccc(Cl)c1)n1ccc2cc(OCCc3ccc4c(n3)NCCC4)ccc21 (centres undefined),0.5
10,O=C(O)CC(c1ccccc1)n1ccc2cc(OCCONC3=NCCN3)ccc21 (centres undefined),200
11,O=C(O)c1ccccc1-n1ccc2cc(OCCCNc3ccccn3)ccc21,> 20000
12,O=C(O)CC(c1ccc2c(c1)OCO2)n1ccc2cc(OCCc3ccc4c(n3)NCCO4)ccc21 (centres undefined),8
13,CCCC(CC(=O)O)n1ccc2cc(NC(=O)Cc3ccc4c(n3)NCCC4)ccc21 (centres undefined),78
14,O=C(O)CC(c1ccccn1)n1ccc2cc(OCCc3ccc4c(n3)NCCC4)ccc21 (centres undefined),1.2
15,O=C(O)CC(c1ccc(F)cc1)n1ccc2cc(OCCc3ccc4c(n3)NCCC4)ccc21 (centres undefined),0.7
16,COc1ccccc1C(CC(=O)O)n1ccc2cc(OCCc3ccc4c(n3)NCCC4)ccc21 (centres undefined),1.1

row,Compound,IC50 [nM]
1,O=C(O)c1ccc(-n2ccc3cc(OCCCNc4ccccn4)ccc32)cc1,> 20000
2,O=C(O)CC(c1cccc2ccccc12)n1ccc2cc(OCCc3ccc4c(n3)NCCC4)ccc21 (centres undefined),37
3,O=C(O)CC(c1cnc2ccccc2c1)n1ccc2cc(OCCc3ccc4c(n3)NCCC4)ccc21 (centres undefined),0.38
4,CNc1cccc(CCOc2ccc3c(ccn3CCC(=O)O)c2)n1,36
5,O=C(O)CC(c1cccnc1)n1ccc2cc(OCC(F)(F)c3ccc4c(n3)NCCC4)ccc21 (centres undefined),130
6,CS(=O)(=O)c1cncc(C(CC(=O)O)n2ccc3cc(OCCc4ccc5c(n4)NCCC5)ccc32)c1 (centres undefined),0.46
7,COc1cncc(C(CC(=O)O)n2ccc3cc(OCCc4ccc5c(n4)NCCC5)ccc32)c1 (centres undefined),0.25
8,CS(=O)(=O)c1ccc(C(CC(=O)O)n2ccc3cc(OCCc4ccc5c(n4)NCCC5)ccc32)cn1 (centres undefined),0.3
9,CCCC(CC(=O)O)n1ccc2cc(OCCc3ccc4c(n3)NCCC4)ccc21 (centres undefined),5
10,O=C(O)CC(c1ccc(-c2ccccc2)cc1)n1ccc2cc(OCCc3ccc4c(n3)NCCC4)ccc21 (centres undefined),40
11,CC(Cn1ccc2cc(OCCCNc3ccccn3)ccc21)C(=O)O (centres undefined),460
12,O=C(O)CC(c1ccncc1)n1ccc2cc(OCCc3ccc4c(n3)NCCC4)ccc21 (centres undefined),0.9
13,O=C(O)CC(c1ccccc1)n1ccc2cc(OCCc3ccc4c(n3)NCCC4)ccc21 (centres undefined),1
14,O=C(O)CC(c1ccc2ccccc2c1)n1ccc2cc(OCCc3ccc4c(n3)NCCC4)ccc21 (centres undefined),37
15,CCCC(Cn1ccc2cc(OCCCNc3ccccn3)ccc21)C(=O)O (centres undefined),2000

# Test system: not listed separately
# Experiment: Bioavailability in mice after […] dosage
# Format: ADME, organism-based
# Details: mouse, in vivo
row,Compound,bioavailability [%]
1,O=C(O)CC(c1ccc2c(c1)OCO2)n1ccc2cc(OCCc3ccc4c(n3)NCCC4)ccc21 (centres undefined),73

# Test system: not listed separately
# Experiment: Half life in mice after intravenous dosage
# Format: ADME, organism-based
# Details: mouse, in vivo
row,Compound,half-life [h]
1,O=C(O)CC(c1ccc2c(c1)OCO2)n1ccc2cc(OCCc3ccc4c(n3)NCCC4)ccc21 (centres undefined),1.5

# From ChEMBL document CHEMBL1141928, “Non-peptidic alpha(v)beta3 antagonists containing indol-1-yl propionic acids” (Bioorg Med Chem Lett, 2005)
